Test results from the NIST ThermoML archive (doi:10.1016/j.jct.2019.04.017).
Values joined by “and” are separate entries in the source; they are usually repeats but may differ in a detail not shown here. Equal entries are not always repeated.

Assay: xn = mol fraction of the nth substance listed
Conditions: 96 kPa, Liquid; for viscosity: Cone and plate viscometry; for electrical conductivity: Frequency=0.001 MHz, Alternating current cell with electrodes

C1CCC2=NCCCN2CC1 [1,8-diaza-7-bicyclo[5.4.0]undecene] + OCC(O)CO
Conditions | electrical conductivity, 288.1 K [S/m] | electrical conductivity, 293.1 K [S/m] | electrical conductivity, 298.1 K [S/m] | electrical conductivity, 303.1 K [S/m] | electrical conductivity, 308.1 K [S/m] | viscosity, 288.1 K | viscosity, 298.1 K [mPa·s] | viscosity, 308.1 K
x1 = 0.0501 | – | – | – | – | – | 3852 mPa·s | 1458 | 626.5 mPa·s
x1 = 0.0502 | 0.0181 | 0.0243 | 0.0327 | 0.0423 | 0.0534 | – | – | –
x1 = 0.0909 | – | – | – | – | – | 5116 mPa·s | 1802 | 759.4 mPa·s
x1 = 0.0914 | 0.0194 | 0.0272 | 0.0371 | 0.0478 | 0.062 | – | – | –
x1 = 0.1 | 0.0187 | – | 0.0352 | – | 0.0592 | 5432 mPa·s | 1876 | 784.2 mPa·s
x1 = 0.1115 | 0.0182 | 0.0249 | 0.0339 | 0.044 | – | – | – | –
x1 = 0.1266 | 0.0169 | 0.0238 | 0.0317 | 0.0433 | – | – | – | –
x1 = 0.1667 | – | – | – | – | – | 5975 mPa·s | 2092 | 818.8 mPa·s
x1 = 0.1672 | 0.0141 | 0.0208 | 0.0283 | 0.0374 | – | – | – | –
x1 = 0.2 | 0.0116 | 0.0167 | 0.023 | 0.031 | – | 6100 mPa·s and 6110 mPa·s | 2107 | 833.7 mPa·s and 835.4 mPa·s
x1 = 0.2153 | – | – | – | – | – | 6150 mPa·s | 2175 | 838.8 mPa·s
x1 = 0.2306 | – | – | – | – | – | 6006 mPa·s | 2087 | 828.5 mPa·s
x1 = 0.2504 | 0.00817 | 0.0117 | 0.0161 | 0.0204 | – | – | – | –
x1 = 0.287 | 0.00592 | 0.00833 | 0.0112 | 0.015 | – | – | – | –
x1 = 0.3059 | – | – | – | – | – | 5665 mPa·s | 1988 | 771.5 mPa·s
x1 = 0.3333 | – | – | – | – | – | 5582 mPa·s | 1968 | 742.2 mPa·s
x1 = 0.3338 | 0.00385 | 0.00534 | 0.00723 | 0.0103 | – | – | – | –
x1 = 0.4003 | 0.00156 | 0.00223 | 0.00307 | 0.00416 | – | – | – | –
x1 = 0.4011 | – | – | – | – | – | 5043 mPa·s | 1705 | 664.5 mPa·s
x1 = 0.5 | 0.000299 | 0.000456 | 0.000675 | 0.000965 | – | 4049 mPa·s | 1315 | 503 mPa·s
x1 = 0.5632 | – | – | – | – | – | 3138 mPa·s | 1017 | 393.5 mPa·s
x1 = 0.5656 | 0.000105 | 0.00016 | 0.000249 | 0.000356 | – | – | – | –
x1 = 0.625 | – | – | – | – | – | 1906 mPa·s | 616.2 | 224.2 mPa·s
x1 = 0.6255 | 4.63e-05 | 7.22e-05 | 0.000122 | 0.000176 | – | – | – | –
x1 = 0.75 | 8.75e-05 | – | 0.000189 | – | – | 468.1 mPa·s | 186.1 | 84.66 mPa·s
x1 = 0.753 | 8.75e-05 | 0.000125 | 0.000189 | 0.000254 | – | – | – | –
x1 = 0.8333 | 0.000221 | – | 0.000405 | – | – | 119.1 mPa·s | 51 | 33.4 mPa·s
x1 = 0.8334 | 0.000221 | 0.000314 | 0.000405 | 0.000526 | – | – | – | –
x1 = 0.9094 | 0.000432 | 0.000514 | 0.000603 | 0.000695 | – | – | – | –
x1 = 0.95 | 0.000486 | 0.000561 | 0.000638 | 0.000702 | – | – | – | –
x1 = 0.975 | 0.000452 | 0.000511 | 0.000561 | 0.000615 | – | – | – | –
x1 = 1 | 0.000222 | 0.000241 | 0.000267 | 0.000297 | – | 15.35 mPa·s | 10.32 | 8.17 mPa·s
